# PubChem BioAssay AID1963875 (Molecular Pharmacology Branch, DTP, NCI, 2024)
# pIC50: −log10 of the molar value.
# Test system: KRAS-mutant PDC complex spheroid viability
# Assay: Anticancer human tumor 186277-243-T-J2-PDC patient-derived colon adenocarcinoma cell line growth inhibition [KRAS2]
# Details: for viability, T/C: stronger effect = lower value
# Excerpt: Multicellular complex tumor spheroid response to RAS pathway inhibitors in combination with a targeted agents in patient-derived cell lines with oncogenic KRAS variants from multiple cancer types
# A high-throughput screen of multi-cell type tumor spheroids was designed to identify active combinations of targeted small molecules and KRAS pathway inhibitors. Complex spheroids include a stromal component modeled by human endothelial cells (HUVEC) and fibroblasts modeled by human mesenchymal stem cells (MSCs). The concentration ranges selected for each drug and investigational agent were based upon clinically achievable concentrations if the clinical Cmax of the agent was known.
# Compounds. The drugs and investigational agents: BI-3406 (NSC825286), BAY-293 (NSC824723), batoprotafib (TNO155; NSC825523), sotorasib (AMG 510; NSC818433), MRTX1257 (NSC819558), elimusertib (BAY 1895344; NSC800525), molibresib (GSK525762; NSC774829), temuterkib (LY3214996; NSC803410), venetoclax (NSC766270), alisertib (NSC759677), olaparib (NSC753686), talazoparib (NSC767125), erdafitinib (NSC781556), ipatasertib (NSC767898), cabozantinib (NSC761068), nintedanib (NSC756659), abemaciclib (NSC768073), docetaxel (NSC628503), trametinib (NSC758246), and sapanisertib (NSC764658) were obtained from the National Cancer Institute (NCI) Developmental Therapeutics Program Chemical Repository. The FDA-approved anticancer drug set is available from the Developmental Therapeutics Program. […] The stock solutions were prepared in dimethyl sulfoxide (DMSO, Sigma-Aldrich, St. Louis, MO, cat. D2650) at 800-fold the tested concentration and stored at -70 degrees C prior to their use. All drugs and investigational agents were tested over a range starting from a high concentration at or near the clinical Cmax and decreasing in half-log increments. If the clinical Cmax for an agent had not been determined, the highest concentration tested was 10 microM.
# Cell Culture. All cells were maintained in an incubator at 37 degrees C and 5% CO2 with 95% humidity. The PDC lines were cultured according to standard operating procedures established by the NCI PDMR (https://pdmr.cancer.gov/sops/default.htm). Briefly, all PDCs were thawed and cultured in Matrigel-coated flasks prepared with a working solution of 1X Ham's F-12 nutrient mix, without supplementation (Invitrogen, Waltham, MA, cat. 11765054), 100 U/mL penicillin-streptomycin (Invitrogen, cat. 15140122), and 2.5% Matrigel (Corning Inc., Corning, NY, cat. 354248) for the first three passages. All PDCs were cultured in complete DMEM/F-12 media containing advanced DMEM/F-12 (Invitrogen, cat. 12634028), 4.9% defined fetal bovine serum, heat inactivated (HyClone Laboratories Inc., Logan, UT, cat. SH30070.03HI), 389 ng/mL hydrocortisone (Sigma-Aldrich, cat. H4001), 9.7 ng/mL human EGF recombinant protein (Invitrogen, cat. PHG0313), 23.4 microg/mL adenine (Sigma-Aldrich, cat. A2786), 97.3 U/mL penicillin-streptomycin (Invitrogen, cat. 15140122), 1.9 mM L-glutamine (Invitrogen, cat. 25030081), and 9.7 microM Y-27632 dihydrochloride (Tocris Bioscience, Bristol, United Kingdom, cat. 1254). The PDCs were cultured in complete DMEM/F12 media without 9.7 microM Y-27632 dihydrochloride for at least two passages prior to the screen. The established cell line HOP-62 was cultured in RPMI 1640 medium, HEPES (Invitrogen, cat. 22400105) with 10% defined fetal bovine serum (HyClone Laboratories Inc., cat. SH30070.03) and 2 mM L-glutamine (Invitrogen, cat. 25030081). The pooled donor HUVEC were cultured in endothelial cell growth medium 2 (PromoCell, Heidelberg, Germany, cat. C-22011) and the hMSC were cultured in mesenchymal stem cell growth medium 2 (PromoCell, cat. C-28009). For all experiments, HUVEC and hMSC were used at passages </=5, while the malignant cell lines were used at passages </=15. […]
# [1] = curve of first compound, second compound 0.0316 µM
# [2] = curve of first compound, second compound 0.1 µM
# [3] = curve of first compound, second compound 0.316 µM
# [4] = curve of first compound, second compound 1 µM
# [5] = curve of first compound, second compound 3.16 µM
# [6] = second compound 0.0316 µM, first compound 0.0316 µM
# [7] = second compound 0.0316 µM, first compound 0.1 µM
# [8] = second compound 0.1 µM, first compound 0.0316 µM
# [9] = second compound 0.1 µM, first compound 0.1 µM
# [10] = second compound 0.316 µM, first compound 0.0316 µM
# [11] = second compound 0.316 µM, first compound 0.1 µM
# [12] = second compound 1 µM, first compound 0.0316 µM
# [13] = second compound 1 µM, first compound 0.1 µM
# [14] = second compound 3.16 µM, first compound 0.0316 µM
# [15] = second compound 3.16 µM, first compound 0.1 µM
# [16] = second compound 0.1 µM, first compound 0.316 µM
# [17] = second compound 0.1 µM, first compound 1 µM
# [18] = second compound 0.1 µM, first compound 3.16 µM
# [19] = second compound 0.1 µM, first compound 10 µM
# [20] = second compound 0.316 µM, first compound 0.316 µM
# [21] = second compound 0.316 µM, first compound 1 µM
# [22] = second compound 0.316 µM, first compound 3.16 µM
# [23] = second compound 0.316 µM, first compound 10 µM
# [24] = second compound 1 µM, first compound 0.316 µM
# [25] = second compound 1 µM, first compound 1 µM
# [26] = second compound 1 µM, first compound 3.16 µM
# [27] = second compound 1 µM, first compound 10 µM
# [28] = second compound 3.16 µM, first compound 0.316 µM
# [29] = second compound 3.16 µM, first compound 1 µM
# [30] = second compound 3.16 µM, first compound 3.16 µM
# [31] = second compound 3.16 µM, first compound 10 µM
# 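Wherever viability, T/C is given: viability read after seven days of compound exposure; 100% = DMSO vehicle-treated spheroids so lower means less viable.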
smiles,measurement,setting,value
CC(C)n1nc(-c2ccc3oc(N)nc3c2)c2c(N)ncnc21 + C=CC(=O)N1CCN(c2nc(OCC3CCCN3C)nc3c2CCN(c2cccc4cccc(C)c24)C3)CC1CC#N,pIC50,[1],8.15
same,pIC50,[2],8.00
same,pIC50,[3],7.87
same,pIC50,[4],8.19
same,pIC50,[5],> 9.50
same,"viability, T/C","second compound 0.0316 µM, first compound 0.000316 µM",89.7%
same,"viability, T/C","second compound 0.0316 µM, first compound 0.001 µM",78.9%
same,"viability, T/C","second compound 0.0316 µM, first compound 0.00316 µM",63.5%
same,"viability, T/C","second compound 0.0316 µM, first compound 0.01 µM",44.2%
same,"viability, T/C",[6],28.2%
same,"viability, T/C",[7],16.9%
same,"viability, T/C","second compound 0.1 µM, first compound 0.000316 µM",88%
same,"viability, T/C","second compound 0.1 µM, first compound 0.001 µM",101%
same,"viability, T/C","second compound 0.1 µM, first compound 0.00316 µM",77.8%
same,"viability, T/C","second compound 0.1 µM, first compound 0.01 µM",51.2%
same,"viability, T/C",[8],27.4%
same,"viability, T/C",[9],21.2%
same,"viability, T/C","second compound 0.316 µM, first compound 0.000316 µM",106%
same,"viability, T/C","second compound 0.316 µM, first compound 0.001 µM",111%
same,"viability, T/C","second compound 0.316 µM, first compound 0.00316 µM",97.1%
same,"viability, T/C","second compound 0.316 µM, first compound 0.01 µM",58.2%
same,"viability, T/C",[10],27%
same,"viability, T/C",[11],16.4%
same,"viability, T/C","second compound 1 µM, first compound 0.000316 µM",102%
same,"viability, T/C","second compound 1 µM, first compound 0.001 µM",96.1%
same,"viability, T/C","second compound 1 µM, first compound 0.00316 µM",70.8%
same,"viability, T/C","second compound 1 µM, first compound 0.01 µM",38.4%
same,"viability, T/C",[12],12.8%
same,"viability, T/C",[13],8.12%
same,"viability, T/C","second compound 3.16 µM, first compound 0.000316 µM",0.26%
same,"viability, T/C","second compound 3.16 µM, first compound 0.001 µM",0.19%
same,"viability, T/C","second compound 3.16 µM, first compound 0.00316 µM",0.24%
same,"viability, T/C","second compound 3.16 µM, first compound 0.01 µM",0.14%
same,"viability, T/C",[14],0.12%
same,"viability, T/C",[15],0.16%
Cn1nccc1Nc1nccc(-c2cc3c(s2)C(C)(C)N(CCN2CCOCC2)C3=O)n1 + C=CC(=O)N1CCN(c2nc(OCC3CCCN3C)nc3c2CCN(c2cccc4cccc(C)c24)C3)CC1CC#N,pIC50,[1],6.39
same,pIC50,[2],6.34
same,pIC50,[3],6.46
same,pIC50,[4],6.41
same,pIC50,[5],> 7.50
same,"viability, T/C",[6],111%
same,"viability, T/C",[7],96.7%
same,"viability, T/C","second compound 0.0316 µM, first compound 0.316 µM",63%
same,"viability, T/C","second compound 0.0316 µM, first compound 1 µM",5.23%
same,"viability, T/C","second compound 0.0316 µM, first compound 3.16 µM",6.25%
same,"viability, T/C","second compound 0.0316 µM, first compound 10 µM",6.65%
same,"viability, T/C",[8],105%
same,"viability, T/C",[9],104%
same,"viability, T/C",[16],70.2%
same,"viability, T/C",[17],5.12%
same,"viability, T/C",[18],9.32%
same,"viability, T/C",[19],6.37%
same,"viability, T/C",[10],101%
same,"viability, T/C",[11],97.1%
same,"viability, T/C",[20],51.8%
same,"viability, T/C",[21],15.8%
same,"viability, T/C",[22],5.05%
same,"viability, T/C",[23],7.23%
same,"viability, T/C",[12],91%
same,"viability, T/C",[13],88.6%
same,"viability, T/C",[24],59.1%
same,"viability, T/C",[25],8.02%
same,"viability, T/C",[26],4.02%
same,"viability, T/C",[27],4.26%
same,"viability, T/C",[14],10.1%
same,"viability, T/C",[15],1.3%
same,"viability, T/C",[28],0.45%
same,"viability, T/C",[29],0.51%
same,"viability, T/C",[30],0.15%
same,"viability, T/C",[31],0.16%
O=C(c1cc(Cc2n[nH]c(=O)c3ccccc23)ccc1F)N1CCN(C(=O)C2CC2)CC1 + CC1OCC2(CCN(c3cnc(Sc4ccnc(N)c4Cl)c(N)n3)CC2)C1N,pIC50,[2],5.19
same,pIC50,[3],5.22
same,pIC50,[4],5.40
same,pIC50,[5],5.72
same,pIC50,"curve of first compound, second compound 10 µM",6.21
same,"viability, T/C",[8],118%
same,"viability, T/C",[9],112%
same,"viability, T/C",[16],114%
same,"viability, T/C",[17],109%
same,"viability, T/C",[18],81%
same,"viability, T/C",[19],31.3%
same,"viability, T/C",[10],129%
same,"viability, T/C",[11],124%
same,"viability, T/C",[20],106%
same,"viability, T/C",[21],115%
same,"viability, T/C",[22],75%
same,"viability, T/C",[23],28.8%
same,"viability, T/C",[12],122%
same,"viability, T/C",[13],113%
same,"viability, T/C",[24],126%
same,"viability, T/C",[25],103%
same,"viability, T/C",[26],56.8%
same,"viability, T/C",[27],23.8%
same,"viability, T/C",[14],92.2%
same,"viability, T/C",[15],94.9%
same,"viability, T/C",[28],87.4%
same,"viability, T/C",[29],70.3%
same,"viability, T/C",[30],33.9%
same,"viability, T/C",[31],16.3%
same,"viability, T/C","second compound 10 µM, first compound 0.0316 µM",86.7%
same,"viability, T/C","second compound 10 µM, first compound 0.1 µM",66%
same,"viability, T/C","second compound 10 µM, first compound 0.316 µM",62.9%
same,"viability, T/C","second compound 10 µM, first compound 1 µM",45.8%
same,"viability, T/C","second compound 10 µM, first compound 3.16 µM",24.9%
same,"viability, T/C","second compound 10 µM, first compound 10 µM",14.1%
CC(=O)OC12COC1CC(O)C1(C)C(=O)C(O)C3=C(C)C(OC(=O)C(O)C(NC(=O)OC(C)(C)C)c4ccccc4)CC(O)(C(OC(=O)c4ccccc4)C21)C3(C)C (configuration not stated),"viability, T/C",compound 0.01 µM,5.72% [middle of 5 runs]
same,"viability, T/C",compound 0.0316 µM,3.66% [middle of 5 runs]
same,"viability, T/C",compound 0.1 µM,3.28% [middle of 5 runs]
same,"viability, T/C",compound 0.316 µM,3.46% [middle of 4 runs]
same,"viability, T/C",compound 1 µM,3.38% [middle of 5 runs]
same,"viability, T/C",compound 3.16 µM,3.74% [middle of 5 runs]
same,pIC50,curve of compound,> 8.00
